# Assay results as given in patent publication US8114641B2, “Methylbutanol as an advanced biofuel” (Synthetic Genomics, Inc., priority 2007, dated 2012).
# Where two headings read alike, the source gives them in different places.
# B1: ADH7: Saccharomyces cerevisiae NADPH-dependent alcohol dehydrogenase ADH7, SEQ ID NO: 72 (protein, listed as Saccharomyces cerevisiae)
# chain: MLYPEKFQGIGISNAKDWKHPKLVSFDPKPFGDHDVDVEIEACGICGSDFHIAVGNWGPVPENQILGHEIIGRVVKVGSKCHTGVKIGDRVGVGAQALACFECERCKSDNEQYCTNDHVLTMWTPYKDGYISQGGFASHVRLHEHFAIQIPENIPSPLAAPLLCGGITVFSPLLRNGCGPGKRVGIVGIGGIGHMGILLAKAMGAEVYAFSRGHSKREDSMKLGADHYIAMLEDKGWTEQYSNALDLLVVCSSSLSKVNFDSIVKIMKIGGSIVSIAAPEVNEKLVLKPLGLMGVSISSSAIGSRKEIEQLLKLVSEKNVKIWVEKLPISEEGVSHAFTRMESGDVKYRFTLVDYDKKFHK
# B2: E. coli ilvB: Acetolactate synthase I, large subunit [Escherichia coli], SEQ ID NO: 37 (protein, listed as Escherichia coli)
# chain: MASSGTTSTRKRFTGAEFIVHFLEQQGIKIVTGIPGGSILPVYDALSQSTQIRHILARHEQGAGFIAQGMARTDGKPAVCMACSGPGATNLVTAIADARLDSIPLICITGQVPASMIGTDAFQEVDTYGISIPITKHNYLVRHIEELPQVMSDAFRIAQSGRPGPVWIDIPKDVQTAVFEIETQPAMAEKAAAPAFSEESIRDAAAMINAAKRPVLYLGGGVINAPARVRELAEKAQLPTTMTLMALGMLPKAHPLSLGMLGMHGVRSTNYILQEADLLIVLGARFDDRAIGKTEQFCPNAKIIHVDIDRAELGKIKQPHVAIQADVDDVLAQLIPLVEAQPRAEWHQLVADLQREFPCPIPKACDPLSHYGLINAVAACVDDNAIITTDVGQHQMWTAQAYPLNRPRQWLTSGGLGTMGFGLPAAIGAALANPDRKVLCFSGDGSLMMNIQEMATASENQLDVKIILMNNEALGLVHQQQSLFYEQGVFAATYPGKINFMQIAAGFGLETCDLNNEADPQASLQEIINRPGPALIHVRIDAEEKVYPMVPPGAANTEMVGE
# B3: E. coli ilvG: Acetolactate synthase II, large subunit [Escherichia coli], SEQ ID NO: 39 (protein, listed as Escherichia coli)
# chain: MNGAQWVVHALRAQGVNTVFGYPGGAIMPVYDALYDGGVEHLLCRHEQGAAMAAIGYARATGKTGVCIATSGPGATNLITGLADALLDSIPVVAITGQVSAPFIGTDAFQEVDILGLSLACTKHSFLVQSLEELPRIMAEAFDVASSGRPGPVLVDIPKDIQLASGDLEPWFTTVENEVTFPHAEVEQARQMLAKAQKPMLYVGGGVGMAQAVSALREFLAATKMPATCTLKGLGAVEADYPYYLGMLGMHGTKAANFAVQECDLLIAVGARFDDRVTGKLNTFAPHASVIHMDIDPAEMNKLRQAHVALQGDLNALLPALQQPLNINDWQQYCAQLRDEHTWRYDHPGDAIYAPLLLKQLSDRKPADCVVTTDVGQHQMWAAQHIAHTRPENFITSSGLGTMGFGLPAAVGAQVARPNDTVVCISGDGSFMMNVQELGTVKRKQLPLKIVLLDNQRLGMVRQWQQLFFQERYSETTLTDNPDFLMLASAFGIPGQHITRKDQVEAALDTMLNSDGPYLLHVSIDELENVWPLVPPGASNSEMLEKLS
# B4: ADH6: Saccharomyces cerevisiae alcohol dehydrogenase ADH6, SEQ ID NO: 66 (protein, listed as Saccharomyces cerevisiae)
# chain: MSYPEKFEGIAIQSHEDWKNPKKTKYDPKPFYDHDIDIKIEACGVCGSDIHCAAGHWGNMKMPLVVGHEIVGKVVKLGPKSNSGLKVGQRVGVGAQVFSCLECDRCKNDNEPYCTKFVTTYSQPYEDGYVSQGGYANYVRVHEHFVVPIPENIPSHLAAPLLCGGLTVYSPLVRNGCGPGKKVGIVGLGGIGSMGTLISKAMGAETYVISRSSRKREDAMKMGADHYIATLEEGDWGEKYFDTFDLIVVCASSLTDIDFNIMPKAMKVGGRIVSISIPEQHEMLSLKPYGLKAVSISYSALGSIKELNQLLKLVSEKDIKIWVETLPVGEAGVHEAFERMEKGDVRYRFTLVGYDKEFSD
# Columns and labels:
# [1] = Physical properties of alcohol fuels and gasoline; assay type: physicochemical
# [2] = for Energy Content / Pump Octane (R + M)/2: 10% blend in gasoline; for Pump Octane (R + M)/2: RBOB with Pump Octane 80.85 and RVP 7.37; for Reid Vapor Pressure: measured with 9.5% volumetric blend in RBOB
# [3] = based on literature review; cited from earlier work
# [4] = Fuel properties of the neat fuel; conditions: for Pump Octane (R + M)/2: extrapolated from tests on blended fuels (blending octanes)
# [5] = Ether fuel testing (ULSD and hexadecane blends, neat ether); assay type: physicochemical
# [6] = Enzyme assays of overexpressed ADH6 and ADH7 with crude extracts; assay type: biochemical; conditions: NADPH dependent
# Description: Yeast ADH6 and ADH7 have been reported as broad substrate specificity alcohol dehydrogenases. These enzymes were therefore overexpressed in S. cerevisiae under the control of TEF promoter and enzyme assays were carried out with crude extracts. Both ADH6 and ADH7 were active on 2-methylbutanal and were NADPH dependent reductases.
# [7] = Endpoint assay for acetolactate synthase activity with pyruvate as substrate; assay type: biochemical; conditions: colorimetric detection at 546 nm, expressed in yeast
# Description: FIG. 23 (a-d.) Endpoint assays for acetolactate synthase activity were carried out using pyruvate as substrate. The resulting acetolactate was converted to […] under acidic conditions. Acetone was reacted with α-naphtha for colorimetric detection at 546 nm. […] The reaction was only moderately subject to feedback inhibition by leucine, isoleucine and valine (b, c and d) which could be due to longer reaction times.
# [8] = Aldehyde reductase assay of purified ADH6 on 2-methyl butyraldehyde; assay type: biochemical
# Description: Enzyme assays for aldehyde reductase activity were carried out in 100 mM citrate phosphate buffer pH6.2, 0.5 mM NADPH and 0.05 to 20 mM substrate (acetaldehyde or 2-methylbutanal). The reaction was monitored for 5 minutes at 340 nm for oxidation of NADPH to NADP+.
molecule,measurement,setting,value
"CC(C)CCO [3-MBO, 3-methyl-1-butanol]","Boiling Point, max",[1],130 °C
same,"Flash Point, min",[1],43 °C
same,"Freezing Point, max",[1],−117 °C
same,Energy Content,[2],"113,824 BTU/gal"
same,Pump Octane (R + M)/2,[2],82.0
same,Reid Vapor Pressure,[2],~7^B psi
same,Fuel Solubility in Water,[3],2 wt %
same,Water Solubility in Fuel,[3],9 wt %
same,Energy Content,[4],"112,240 BTU/gal"
same,Reid Vapor Pressure,[4],2.3 psi
same,Pump Octane (R + M)/2,[4],101.0
"CCCCCCCCCCCCCCCC [Hexadecane, reference compound]",wear scar diameter,[5],534 µm
"CCC(C)CO (stereo not shown) [2-MBO, 2-methyl-1-butanol]","Boiling Point, max",[1],130 °C
same,"Flash Point, min",[1],43 °C
same,"Freezing Point, max",[1],−70 °C
same,Energy Content,[2],"113,963 BTU/gal"
same,Pump Octane (R + M)/2,[2],83.0
same,Reid Vapor Pressure,[2],~7^B psi
same,Fuel Solubility in Water,[3],3 wt %
same,Water Solubility in Fuel,[3],9 wt %
same,Energy Content,[4],"113,627 BTU/gal"
same,Reid Vapor Pressure,[4],2.3 psi
same,Pump Octane (R + M)/2,[4],102.0
"CCC(C)COCC(C)CC (stereo not shown) [2MBO-ether, 2-methyl-1-(2-methylbutoxy)butane]",Flash,[5],118 ° F.
same,Solubility in Water,[5],<500 ppm
B1,activity on 2-methylbutanal,[6],active
B2,acetolactate synthase activity on pyruvate,[7],highest activity
B3,acetolactate synthase activity on pyruvate,[7],minimum activity
B4,Km,"[8]; purified His-tagged enzyme, pH6.2, 0.5 mM NADPH",360 µM
same,"Vmax (cofactor oxidation rate) for 2-methyl butyraldehyde, fold higher than acetaldehyde",[8]; purified enzyme,1.3 fold
same,activity on 2-methylbutanal,[6],active
